The test system of assay [1] is PI5P4Kα. Also noted: method as in ref 30 (a number printed in a supplementary file, which may have a reference list of its own: not looked up in the article's list). The following applies: 32P-ATP/PI5P incorporation; cited from earlier work.
Assay [2] concerns the target PI5P4Kγ+ (Homo sapiens, UniProt Q8TBX8, D138G/D197E/E133P/E135D/E153T/E196G/G136S/G139A/N195G/S132L/S134N). Kind of assay: Thermal shift assay. To be noted: read-out: ΔTm PI5P4Kγ+.
Assay [3] concerns the target S6K1 (Homo sapiens, UniProt P23443). The assay can be described thus: Kinase panel, radiometric 33P filter binding. To be noted: read-out: % activity remaining.
Description: (§1) filter binding assay using 33P-g-ATPat the MRC PPU International Centre for Kinase Profiling, University of
Assay [4] concerns the target PKCγ (Homo sapiens, UniProt P05129). The assay can be described thus: Kinase panel, radiometric 33P filter binding. The following applies: read-out: % activity remaining.
Description: as §1
Assay [5] addresses MSK1 (Homo sapiens, UniProt O75582). Kind of assay: Kinase panel, radiometric 33P filter binding. To be noted: read-out: % activity remaining.
In assay [6] the target is CAMKKb (Homo sapiens, UniProt Q96RR4). The assay can be described thus: Kinase panel, radiometric 33P filter binding. To be noted: read-out: % activity remaining.
Description: as §1
Assay [7] has as its target CHK2 (Homo sapiens, UniProt O96017). Kind of assay: Kinase panel, radiometric 33P filter binding. To be noted: read-out: % activity remaining.
Description: as §1
The target of assay [8] is CDK2-Cyclin A (Homo sapiens, UniProt P24941). Kind of assay: Kinase panel, radiometric 33P filter binding. To be noted: read-out: % activity remaining.
Description: as §1
Assay [9] has as its target Aurora A (Homo sapiens, UniProt O14965). Kind of assay: Kinase panel, radiometric 33P filter binding. The following applies: read-out: % activity remaining.
Description: as §1
The target of assay [10] is AMPK (hum) (Homo sapiens, UniProt Q13131). Kind of assay: Kinase panel, radiometric 33P filter binding. The following applies: read-out: % activity remaining.
Description: as §1
In assay [11] the target is MARK2 (Homo sapiens, UniProt Q7KZI7). Kind of assay: Kinase panel, radiometric 33P filter binding. To be noted: read-out: % activity remaining.
Description: as §1
In assay [12] the target is BRSK2 (Homo sapiens, UniProt Q8IWQ3). Kind of assay: Kinase panel, radiometric 33P filter binding. The following applies: read-out: % activity remaining.
Description: as §1
Kinase % activity remaining s.d.
For assay [13], the target named is TSSK1 (Homo sapiens, UniProt Q9BXA7). The assay can be described thus: Kinase panel, radiometric 33P filter binding. The following applies: read-out: % activity remaining.
Description: as §1
Assay [14] addresses TTBK1 (Homo sapiens, UniProt Q5TCY1). The assay can be described thus: Kinase panel, radiometric 33P filter binding. The following applies: read-out: % activity remaining.
Description: as §1
The target of assay [15] is DYRK2 (Homo sapiens, UniProt Q92630). The assay can be described thus: Kinase panel, radiometric 33P filter binding. The following applies: read-out: % activity remaining.
Description: as §1
Assay [16] deals with IKKe (Homo sapiens, UniProt Q14164). Kind of assay: Kinase panel, radiometric 33P filter binding. To be noted: read-out: % activity remaining.
Description: as §1
Kinase % activity remaining s.d.
Assay [17] deals with PIM3 (Homo sapiens, UniProt Q86V86). The assay can be described thus: Kinase panel, radiometric 33P filter binding. The following applies: read-out: % activity remaining.
Description: as §1
Assay [18] addresses SRPK1 (Homo sapiens, UniProt Q96SB4). Kind of assay: Kinase panel, radiometric 33P filter binding. To be noted: read-out: % activity remaining.
Description: as §1
Assay [19] deals with HIPK2 (Homo sapiens, UniProt Q9H2X6). Kind of assay: Kinase panel, radiometric 33P filter binding. To be noted: read-out: % activity remaining.
Description: as §1
The target of assay [20] is HIPK3 (Homo sapiens, UniProt Q9H422). Kind of assay: Kinase panel, radiometric 33P filter binding. The following applies: read-out: % activity remaining.
Description: as §1
The target of assay [21] is CLK2 (Homo sapiens, UniProt P49760). The assay can be described thus: Kinase panel, radiometric 33P filter binding. To be noted: read-out: % activity remaining.
Description: as §1
The target of assay [22] is PAK2 (Homo sapiens, UniProt Q13177). The assay can be described thus: Kinase panel, radiometric 33P filter binding.
Assay [23] addresses PAK5 (Homo sapiens, UniProt Q9P286). Kind of assay: Kinase panel, radiometric 33P filter binding. To be noted: read-out: % activity remaining.
Assay [24] addresses MST3 (Homo sapiens, UniProt Q9Y6E0). Kind of assay: Kinase panel, radiometric 33P filter binding. To be noted: read-out: % activity remaining.
The target of assay [25] is MAP4K5 (Homo sapiens, UniProt Q9Y4K4). The assay can be described thus: Kinase panel, radiometric 33P filter binding. The following applies: read-out: % activity remaining.
Description: as §1
The target in assay [26] is MLK1 (Homo sapiens, UniProt P80192). Kind of assay: Kinase panel, radiometric 33P filter binding. The following applies: read-out: % activity remaining.
Description: as §1
Assay [27] concerns the target ASK1 (Homo sapiens, UniProt Q99683). The assay can be described thus: Kinase panel, radiometric 33P filter binding. To be noted: read-out: % activity remaining.
Description: as §1
Assay [28] deals with TTK (Homo sapiens, UniProt P33981). Kind of assay: Kinase panel, radiometric 33P filter binding. The following applies: read-out: % activity remaining.
Description: as §1
In assay [29] the target is JAK3 (Homo sapiens, UniProt P52333). The assay can be described thus: Kinase panel, radiometric 33P filter binding. To be noted: read-out: % activity remaining.
Assay [30] addresses BRK (Homo sapiens, UniProt Q13882). Kind of assay: Kinase panel, radiometric 33P filter binding. To be noted: read-out: % activity remaining.
Description: as §1
The target in assay [31] is EPH-A2 (Homo sapiens, UniProt P29317). Kind of assay: Kinase panel, radiometric 33P filter binding. The following applies: read-out: % activity remaining.
Description: as §1
Assay [32] deals with EPH-A4 (Homo sapiens, UniProt P54764). Kind of assay: Kinase panel, radiometric 33P filter binding. To be noted: read-out: % activity remaining.
Description: as §1
The target in assay [33] is HER4 (Homo sapiens, UniProt Q15303). The assay can be described thus: Kinase panel, radiometric 33P filter binding. To be noted: read-out: % activity remaining.
Description: as §1
The target in assay [34] is IR (Homo sapiens, UniProt P06213). The assay can be described thus: Kinase panel, radiometric 33P filter binding. To be noted: read-out: % activity remaining.
Description: as §1
Assay [35] addresses TrkA (Homo sapiens, UniProt P04629). The assay can be described thus: Kinase panel, radiometric 33P filter binding. To be noted: read-out: % activity remaining.
Description: as §1
Assay [36] concerns the target DDR2 (Homo sapiens, UniProt Q16832). The assay can be described thus: Kinase panel, radiometric 33P filter binding. To be noted: read-out: % activity remaining.
Description: as §1

SMILES strings stand for the structures.

The values below come from publication PMC9097471, “Development of Selective Phosphatidylinositol 5-Phosphate 4-Kinase γ Inhibitors with a Non-ATP-competitive, Allosteric Binding Mode” (Journal of Medicinal Chemistry, 2022).

PAK2, sequence (Q13177 whole entry): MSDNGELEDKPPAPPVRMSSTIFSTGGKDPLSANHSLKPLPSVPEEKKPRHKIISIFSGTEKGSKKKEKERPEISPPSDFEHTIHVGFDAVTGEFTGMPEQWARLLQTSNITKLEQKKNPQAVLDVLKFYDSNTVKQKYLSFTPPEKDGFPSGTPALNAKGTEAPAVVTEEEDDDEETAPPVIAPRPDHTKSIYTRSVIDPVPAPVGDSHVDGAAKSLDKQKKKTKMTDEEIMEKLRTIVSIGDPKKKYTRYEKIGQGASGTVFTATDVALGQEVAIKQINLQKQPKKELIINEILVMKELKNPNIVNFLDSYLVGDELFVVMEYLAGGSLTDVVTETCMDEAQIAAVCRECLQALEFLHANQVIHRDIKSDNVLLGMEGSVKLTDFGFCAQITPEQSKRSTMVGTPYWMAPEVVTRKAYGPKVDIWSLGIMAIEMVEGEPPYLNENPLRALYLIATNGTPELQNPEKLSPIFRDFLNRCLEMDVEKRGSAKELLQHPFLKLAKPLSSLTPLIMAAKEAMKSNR
TTK, sequence (P33981 whole entry): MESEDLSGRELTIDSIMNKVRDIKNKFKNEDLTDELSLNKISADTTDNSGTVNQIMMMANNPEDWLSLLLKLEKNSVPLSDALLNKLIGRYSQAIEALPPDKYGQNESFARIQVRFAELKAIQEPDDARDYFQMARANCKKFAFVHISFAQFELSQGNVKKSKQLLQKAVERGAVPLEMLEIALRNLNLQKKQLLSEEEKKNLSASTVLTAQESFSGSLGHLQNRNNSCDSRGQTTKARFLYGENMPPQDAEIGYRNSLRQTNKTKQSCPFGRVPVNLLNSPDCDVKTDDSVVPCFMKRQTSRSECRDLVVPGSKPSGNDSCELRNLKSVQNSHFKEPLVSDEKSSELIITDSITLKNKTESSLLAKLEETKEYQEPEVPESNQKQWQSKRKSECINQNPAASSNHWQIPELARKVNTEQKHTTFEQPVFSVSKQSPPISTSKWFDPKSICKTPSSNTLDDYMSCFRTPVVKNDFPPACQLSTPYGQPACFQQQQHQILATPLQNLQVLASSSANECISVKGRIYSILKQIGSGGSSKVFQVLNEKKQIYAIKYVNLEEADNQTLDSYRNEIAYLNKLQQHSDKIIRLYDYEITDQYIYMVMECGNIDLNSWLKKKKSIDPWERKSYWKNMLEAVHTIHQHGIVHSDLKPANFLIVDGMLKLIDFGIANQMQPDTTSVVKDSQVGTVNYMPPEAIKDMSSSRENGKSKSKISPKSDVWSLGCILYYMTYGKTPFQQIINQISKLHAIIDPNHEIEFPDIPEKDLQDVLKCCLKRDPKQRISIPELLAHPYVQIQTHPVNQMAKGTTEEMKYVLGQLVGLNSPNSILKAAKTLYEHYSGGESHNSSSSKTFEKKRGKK
MST3, sequence (Q9Y6E0 whole entry): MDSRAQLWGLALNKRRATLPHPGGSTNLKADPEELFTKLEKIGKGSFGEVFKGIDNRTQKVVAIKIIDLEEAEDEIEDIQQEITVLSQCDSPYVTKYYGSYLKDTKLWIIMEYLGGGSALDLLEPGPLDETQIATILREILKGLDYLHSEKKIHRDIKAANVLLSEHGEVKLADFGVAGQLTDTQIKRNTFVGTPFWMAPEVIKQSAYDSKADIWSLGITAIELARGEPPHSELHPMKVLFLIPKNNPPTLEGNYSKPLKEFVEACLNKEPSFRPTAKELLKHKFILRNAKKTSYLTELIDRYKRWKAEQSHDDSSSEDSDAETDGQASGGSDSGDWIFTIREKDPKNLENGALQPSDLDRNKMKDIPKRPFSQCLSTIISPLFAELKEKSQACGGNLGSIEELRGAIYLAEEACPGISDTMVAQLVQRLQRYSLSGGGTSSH
PI5P4Kγ+, sequence (Q8TBX8 with tags, fused parts or gaps with the stated changes): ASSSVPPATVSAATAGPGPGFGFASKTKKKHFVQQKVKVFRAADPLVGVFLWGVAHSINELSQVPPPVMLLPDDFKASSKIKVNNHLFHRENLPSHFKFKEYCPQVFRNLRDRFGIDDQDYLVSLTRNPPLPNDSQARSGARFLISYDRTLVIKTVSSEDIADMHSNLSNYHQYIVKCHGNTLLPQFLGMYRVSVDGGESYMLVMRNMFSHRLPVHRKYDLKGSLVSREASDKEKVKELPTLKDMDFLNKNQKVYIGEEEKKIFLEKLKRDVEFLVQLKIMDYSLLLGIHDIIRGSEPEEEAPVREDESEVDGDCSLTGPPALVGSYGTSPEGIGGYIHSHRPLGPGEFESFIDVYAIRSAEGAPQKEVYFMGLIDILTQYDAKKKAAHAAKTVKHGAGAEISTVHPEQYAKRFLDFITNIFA
HER4, sequence (Q15303 26-1308): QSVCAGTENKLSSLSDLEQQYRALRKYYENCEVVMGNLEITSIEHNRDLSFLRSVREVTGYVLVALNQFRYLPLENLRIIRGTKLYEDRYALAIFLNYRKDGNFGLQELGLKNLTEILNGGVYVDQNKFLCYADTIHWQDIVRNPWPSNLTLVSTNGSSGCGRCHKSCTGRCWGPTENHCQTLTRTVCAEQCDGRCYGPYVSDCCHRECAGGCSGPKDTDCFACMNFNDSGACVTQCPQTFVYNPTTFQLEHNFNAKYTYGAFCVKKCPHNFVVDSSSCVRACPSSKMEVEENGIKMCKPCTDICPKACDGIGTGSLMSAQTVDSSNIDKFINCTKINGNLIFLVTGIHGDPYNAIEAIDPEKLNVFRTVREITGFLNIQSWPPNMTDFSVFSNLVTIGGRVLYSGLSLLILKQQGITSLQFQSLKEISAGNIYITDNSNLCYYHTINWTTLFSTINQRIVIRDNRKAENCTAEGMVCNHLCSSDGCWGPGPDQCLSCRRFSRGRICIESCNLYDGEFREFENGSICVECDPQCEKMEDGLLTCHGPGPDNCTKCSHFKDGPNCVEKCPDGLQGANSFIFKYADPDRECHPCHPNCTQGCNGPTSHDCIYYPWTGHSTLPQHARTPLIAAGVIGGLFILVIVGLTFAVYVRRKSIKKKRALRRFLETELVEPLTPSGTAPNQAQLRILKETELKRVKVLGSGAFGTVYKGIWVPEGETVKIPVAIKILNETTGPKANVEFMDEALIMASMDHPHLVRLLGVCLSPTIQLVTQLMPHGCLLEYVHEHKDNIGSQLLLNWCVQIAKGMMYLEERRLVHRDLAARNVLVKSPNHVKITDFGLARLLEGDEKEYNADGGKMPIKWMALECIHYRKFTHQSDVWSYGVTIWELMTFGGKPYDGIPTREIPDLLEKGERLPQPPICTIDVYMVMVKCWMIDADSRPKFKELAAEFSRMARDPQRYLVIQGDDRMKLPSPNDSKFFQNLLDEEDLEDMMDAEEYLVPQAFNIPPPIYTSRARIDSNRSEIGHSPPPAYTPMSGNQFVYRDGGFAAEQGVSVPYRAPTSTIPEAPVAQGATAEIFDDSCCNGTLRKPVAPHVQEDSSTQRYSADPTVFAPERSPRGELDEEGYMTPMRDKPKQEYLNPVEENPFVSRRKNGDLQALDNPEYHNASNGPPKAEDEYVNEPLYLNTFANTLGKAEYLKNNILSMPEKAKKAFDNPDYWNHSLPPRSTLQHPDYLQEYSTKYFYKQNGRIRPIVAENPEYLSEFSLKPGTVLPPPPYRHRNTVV
IKKe, sequence (Q14164 whole entry): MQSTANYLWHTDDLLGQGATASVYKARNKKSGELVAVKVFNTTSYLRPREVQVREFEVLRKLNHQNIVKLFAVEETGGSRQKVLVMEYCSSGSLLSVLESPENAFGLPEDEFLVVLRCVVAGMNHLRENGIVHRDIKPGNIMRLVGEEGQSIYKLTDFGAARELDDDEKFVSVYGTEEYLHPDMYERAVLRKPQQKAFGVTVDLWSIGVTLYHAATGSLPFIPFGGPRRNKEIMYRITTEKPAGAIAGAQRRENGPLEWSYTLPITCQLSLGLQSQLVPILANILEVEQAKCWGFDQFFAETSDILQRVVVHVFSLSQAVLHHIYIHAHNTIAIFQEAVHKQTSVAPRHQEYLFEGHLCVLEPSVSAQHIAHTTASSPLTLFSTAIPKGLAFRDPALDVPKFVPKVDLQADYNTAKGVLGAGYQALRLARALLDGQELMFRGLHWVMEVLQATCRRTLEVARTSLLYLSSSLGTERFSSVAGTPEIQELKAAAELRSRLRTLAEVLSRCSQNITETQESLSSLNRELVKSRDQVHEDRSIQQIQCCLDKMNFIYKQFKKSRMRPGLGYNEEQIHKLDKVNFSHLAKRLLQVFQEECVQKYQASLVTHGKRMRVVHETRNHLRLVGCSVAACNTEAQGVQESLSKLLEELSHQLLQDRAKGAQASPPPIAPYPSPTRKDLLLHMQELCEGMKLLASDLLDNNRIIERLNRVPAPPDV
BRK, sequence (Q13882 whole entry): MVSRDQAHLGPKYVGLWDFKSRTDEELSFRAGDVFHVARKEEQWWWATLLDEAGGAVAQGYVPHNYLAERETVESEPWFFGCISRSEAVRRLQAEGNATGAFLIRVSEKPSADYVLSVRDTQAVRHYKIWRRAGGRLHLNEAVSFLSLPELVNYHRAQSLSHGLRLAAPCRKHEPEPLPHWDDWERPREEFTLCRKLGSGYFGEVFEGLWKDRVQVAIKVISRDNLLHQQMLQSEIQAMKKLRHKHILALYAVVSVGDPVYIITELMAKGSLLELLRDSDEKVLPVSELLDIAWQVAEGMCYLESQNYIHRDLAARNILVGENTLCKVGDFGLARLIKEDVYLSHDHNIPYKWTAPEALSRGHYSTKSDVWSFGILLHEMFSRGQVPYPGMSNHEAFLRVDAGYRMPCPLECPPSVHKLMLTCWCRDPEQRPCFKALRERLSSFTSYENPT

For orientation: IC50 means the concentration at which inhibition is half-maximal. In general, ΔTm refers to the change in melting temperature against a reference sample. With `FC(F)(F)c1ccccc1-c1nc(NCc2cccs2)c2ccccc2n1` [Compound 1, NIH-12848, reference compound], in [1], the IC50 was above 100 µM. Further, in [2], the ΔTm at 63 µM worked out at 7.4 ± 0.6 °C.
As usually defined, the remaining activity is the signal under treatment as a percentage of the control signal. For the compound `CC(C)c1ccccc1-c1nc(NCc2ccccn2)c2c(ccn2C)n1` [Compound 40], the remaining activity at 10 µM in assay [3] worked out at 95%; in assay [4], 77%; in assay [5] it was 95%; in [6] it was 99%; in [7] it was 110%; in assay [8], 103%. Moreover, the remaining activity at 10 µM stood at 94% in assay [9]; 88% in assay [10]; 101% in [11]; 83% in assay [12]; 96% in assay [13]; 117% in [14]. Besides, the remaining activity at 10 µM in [15] came to 106%; in assay [16], 98%; in assay [17], 87%; in assay [18], 93%; in assay [19], 114%; in [20], 92%. Moreover, the remaining activity at 10 µM in assay [21] turned out to be 94%; in [22] (read-out: % activity remaining, PAK2, 10 μM) it was 45%; in assay [23] it was 120%; in assay [24], 110%; in assay [25] it was 112%; in assay [26] it was 89%. The remaining activity at 10 µM in assay [27] was found to be 116%; in assay [28], 94%; in assay [29], 97%; in assay [30], 112%; in assay [31], 104%; in [32], 96%. The remaining activity at 10 µM in assay [33] is 112%; in assay [34] it was 119%; in assay [35], 100%; in [36] it was 90%. Further, the “% activity remaining” value in [22] (PAK2, 10 μM, 10 µM) is below 50%.
